Target: T1, LEH-P (thermostable limonene epoxide hydrolase) (Rhodococcus erythropolis, UniProt Q9ZAG3, T2A/S15P/A19K/E45K/T76K/T85V/N92K/Y96F, form not given)
T1 construct: gene limA; N-terminal hexa-His tag; expressed in E. coli; dimeric
Test: initial velocities of diol formation, Michaelis-Menten fit
Type: biochemical
Conditions: buffer and temperature of kinetics not given (activity assays: 50 mM HEPES pH 8, 30 °C); variant SS16 from earlier study, mutations not given; read-out: K M [mM] ^[b]
Source text: initial velocities of diol formation, Michaelis-Menten fit on LEH-P (thermostable limonene epoxide hydrolase)

T1 sequence (Q9ZAG3 whole entry T2A/S15P/A19K/E45K/T76K/T85V/N92K/Y96F, form open): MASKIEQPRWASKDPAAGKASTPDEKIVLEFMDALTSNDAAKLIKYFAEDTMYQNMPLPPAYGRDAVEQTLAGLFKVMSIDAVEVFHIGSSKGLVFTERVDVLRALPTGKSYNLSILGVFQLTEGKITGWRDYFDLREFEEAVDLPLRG

- Km: 54 ± 4 mM
SMILES: C1CC2OC2C1 (stereo not shown) [1 a, cyclopentene oxide]

Source: paper PMC7383614, “Computational Design of Enantiocomplementary Epoxide Hydrolases for Asymmetric Synthesis of Aliphatic and Aromatic Diols” (Chembiochem, 2020)
